# Legend:
# Assay in all cases: relative viability (nuclei count vs DMSO), 5 days (fraction); higher = more cells survive
# [1] = tested on: 201T
# Method in brief: (§1)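 Lung cancer cell lines in 1536-well plates got either a single drug or a fixed anchor-drug dose together with five library-drug doses (not always all listed) in √10 steps, by pin tool, on the day after seeding. Nuclei were counted after 5 days, and relative viability is the treated-to-vehicle ratio of nuclei counts. Values are medians of duplicate plates.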
# [2] = tested on: NCI-H2085
# Method in brief: as §1
# [3] = tested on: LOU-NH91
# Method in brief: as §1
# [4] = tested on: HCC-44
# Method in brief: as §1
# [5] = tested on: NCI-H1734
# Method in brief: as §1
# [6] = tested on: RERF-LC-KJ
# Method in brief: as §1
# [7] = tested on: NCI-H2405
# Method in brief: as §1
# [8] = tested on: SW 900
# Method in brief: as §1
# [9] = tested on: NCI-H520
# Method in brief: as §1
# [10] = tested on: NCI-H2347
# Method in brief: as §1
# [11] = tested on: NCI-H2170
# Method in brief: as §1
# [12] = tested on: NCI-H1793
# Method in brief: as §1
# [13] = tested on: NCI-H1650
# Method in brief: as §1
# [14] = tested on: COR-L23
# Method in brief: as §1
# [15] = tested on: ABC-1
# Method in brief: as §1
# [16] = tested on: NCI-H3122
# Method in brief: as §1
# [17] = tested on: NCI-H441
# Method in brief: as §1
# [18] = tested on: PC-14
# Method in brief: as §1
# [19] = tested on: NCI-H1993
# Method in brief: as §1
# [20] = tested on: NCI-H647
# Method in brief: as §1
# [21] = tested on: EKVX
# Method in brief: as §1
# [22] = tested on: EPLC-272H
# Method in brief: as §1
# [23] = tested on: NCI-H2023
# Method in brief: as §1
smiles,measurement,setting,value
Clc1ccc(Nc2nnc(Cc3ccncc3)c3ccccc23)cc1 [Vatalanib] + CC(=O)c1c(C)c2cnc(Nc3ccc(N4CCNCC4)cn3)nc2n(C2CCCC2)c1=O [Palbociclib] (partner 0.5 µM),relative viability,[1]; first compound 0.04 µM,0.777
same,relative viability,[1]; first compound 0.1265 µM,0.344
same,relative viability,[1]; first compound 0.4 µM,0.348
same,relative viability,[1]; first compound 1.265 µM,0.341
same,relative viability,[1]; first compound 4 µM,0.332
same,relative viability,[2]; first compound 0.04 µM,0.457
same,relative viability,[2]; first compound 0.1265 µM,0.469
same,relative viability,[2]; first compound 0.4 µM,0.492
same,relative viability,[2]; first compound 1.265 µM,0.433
same,relative viability,[2]; first compound 4 µM,0.475
same,relative viability,[3]; first compound 0.04 µM,0.549
same,relative viability,[3]; first compound 0.1265 µM,0.483
same,relative viability,[3]; first compound 0.4 µM,0.542
same,relative viability,[3]; first compound 1.265 µM,0.457
same,relative viability,[3]; first compound 4 µM,0.55
same,relative viability,[4]; first compound 0.04 µM,0.922
same,relative viability,[4]; first compound 0.1265 µM,0.981
same,relative viability,[4]; first compound 0.4 µM,0.913
same,relative viability,[4]; first compound 1.265 µM,0.955
same,relative viability,[4]; first compound 4 µM,0.959
same,relative viability,[5]; first compound 0.04 µM,0.338
same,relative viability,[5]; first compound 0.1265 µM,0.314
same,relative viability,[5]; first compound 0.4 µM,0.396
same,relative viability,[5]; first compound 1.265 µM,0.33
same,relative viability,[5]; first compound 4 µM,0.336
same,relative viability,[6]; first compound 0.04 µM,1.08
same,relative viability,[6]; first compound 0.1265 µM,1.05
same,relative viability,[6]; first compound 0.4 µM,1.02
same,relative viability,[6]; first compound 1.265 µM,1.02
same,relative viability,[6]; first compound 4 µM,0.903
same,relative viability,[7]; first compound 0.04 µM,0.555
same,relative viability,[7]; first compound 0.1265 µM,0.496
same,relative viability,[7]; first compound 0.4 µM,0.54
same,relative viability,[7]; first compound 4 µM,0.529
same,relative viability,[8]; first compound 0.04 µM,0.504
same,relative viability,[8]; first compound 0.1265 µM,0.523
same,relative viability,[8]; first compound 0.4 µM,0.534
same,relative viability,[8]; first compound 1.265 µM,0.614
same,relative viability,[8]; first compound 4 µM,0.547
same,relative viability,[9]; first compound 0.04 µM,0.214
same,relative viability,[9]; first compound 0.1265 µM,0.242
same,relative viability,[9]; first compound 0.4 µM,0.255
same,relative viability,[9]; first compound 1.265 µM,0.199
same,relative viability,[9]; first compound 4 µM,0.19
same,relative viability,[10]; first compound 0.04 µM,0.428
same,relative viability,[10]; first compound 0.1265 µM,0.423
same,relative viability,[10]; first compound 0.4 µM,0.494
same,relative viability,[10]; first compound 1.265 µM,0.418
same,relative viability,[10]; first compound 4 µM,0.446
same,relative viability,[11]; first compound 0.04 µM,0.415
same,relative viability,[11]; first compound 0.1265 µM,0.443
same,relative viability,[11]; first compound 0.4 µM,0.35
same,relative viability,[11]; first compound 1.265 µM,0.376
same,relative viability,[11]; first compound 4 µM,0.384
same,relative viability,[12]; first compound 0.04 µM,0.274
same,relative viability,[12]; first compound 0.1265 µM,0.262
same,relative viability,[12]; first compound 0.4 µM,0.324
same,relative viability,[12]; first compound 1.265 µM,0.285
same,relative viability,[12]; first compound 4 µM,0.319
same,relative viability,[13]; first compound 0.04 µM,0.364
same,relative viability,[13]; first compound 0.1265 µM,0.384
same,relative viability,[13]; first compound 0.4 µM,0.299
same,relative viability,[13]; first compound 1.265 µM,0.33
same,relative viability,[13]; first compound 4 µM,0.312
same,relative viability,[14]; first compound 0.04 µM,0.364
same,relative viability,[14]; first compound 0.1265 µM,0.286
same,relative viability,[14]; first compound 0.4 µM,0.322
same,relative viability,[14]; first compound 1.265 µM,0.293
same,relative viability,[14]; first compound 4 µM,0.297
same,relative viability,[15]; first compound 0.04 µM,0.662
same,relative viability,[15]; first compound 0.1265 µM,0.7
same,relative viability,[15]; first compound 0.4 µM,0.892
same,relative viability,[15]; first compound 4 µM,0.59
same,relative viability,[16]; first compound 0.04 µM,0.163
same,relative viability,[16]; first compound 0.1265 µM,0.213
same,relative viability,[16]; first compound 0.4 µM,0.195
same,relative viability,[16]; first compound 1.265 µM,0.237
same,relative viability,[16]; first compound 4 µM,0.182
same,relative viability,[17]; first compound 0.04 µM,0.223
same,relative viability,[17]; first compound 0.1265 µM,0.194
same,relative viability,[17]; first compound 0.4 µM,0.253
same,relative viability,[17]; first compound 1.265 µM,0.194
same,relative viability,[17]; first compound 4 µM,0.223
same,relative viability,[18]; first compound 0.04 µM,0.523
same,relative viability,[18]; first compound 0.1265 µM,0.492
same,relative viability,[18]; first compound 0.4 µM,0.581
same,relative viability,[18]; first compound 1.265 µM,0.473
same,relative viability,[18]; first compound 4 µM,0.532
same,relative viability,[19]; first compound 0.04 µM,0.872
same,relative viability,[19]; first compound 0.1265 µM,0.653
same,relative viability,[19]; first compound 0.4 µM,0.814
same,relative viability,[19]; first compound 1.265 µM,0.562
same,relative viability,[19]; first compound 4 µM,0.528
same,relative viability,[20]; first compound 0.04 µM,0.415
same,relative viability,[20]; first compound 0.1265 µM,0.34
same,relative viability,[20]; first compound 0.4 µM,0.37
same,relative viability,[20]; first compound 1.265 µM,0.37
same,relative viability,[20]; first compound 4 µM,0.386
same,relative viability,[21]; first compound 0.04 µM,0.366
same,relative viability,[21]; first compound 0.1265 µM,0.369
same,relative viability,[21]; first compound 0.4 µM,0.343
same,relative viability,[21]; first compound 1.265 µM,0.375
same,relative viability,[21]; first compound 4 µM,0.334
same,relative viability,[22]; first compound 0.04 µM,0.361
same,relative viability,[22]; first compound 0.1265 µM,0.344
same,relative viability,[22]; first compound 0.4 µM,0.372
same,relative viability,[22]; first compound 1.265 µM,0.315
same,relative viability,[22]; first compound 4 µM,0.358
same,relative viability,[23]; first compound 0.04 µM,0.375
same,relative viability,[23]; first compound 0.1265 µM,0.344
same,relative viability,[23]; first compound 0.4 µM,0.439
same,relative viability,[23]; first compound 1.265 µM,0.393
same,relative viability,[23]; first compound 4 µM,0.366

# From the supplement of paper PMC10307832
